A word on the IC50: it is the concentration that inhibits the measured activity by half.

The values that follow come from article PMC9867837 (Cancer letters, 2022).

Like-named read-outs stand apart in the source and are kept apart here.

One assay has as its target Stat3 (Homo sapiens, UniProt P40763). Kind of assay: EMSA of constitutive Stat3 DNA-binding activity in nuclear extracts of treated breast cancer cells. It counts as cell-based. Further details: endogenous in cells. Conditions: MDA-MB-468 and MDA-MB-231, 0–5 μM, 1 or 2 h. The protocol: These studies were carried out as previously described using the ^32P-labeled oligonucleotide probes, hSIE (high affinity sis-inducible element from the c-fos gene, m67 variant, 5^′-[…]) that binds Stat1 and Stat3 [11, 12] and the mammary gland factor element (MGFe) from the bovine β–casein gene promoter (sense strand, 5^′-[…]) that binds Stat5 and Stat1 [11, 12]. Details are presented in Supplementary Information, “Methods”.
Nuclear extracts and whole-cell lysates were prepared, and samples of equal total protein were subjected to Stat3 DNA-binding assay/EMSA analysis using the hSIE probe, or to SDS/PAGE and Western blotting analysis for pY705Stat3, Stat3, or GAPDH [11, 12]. […] Depending on the concentration (1, 3, or 5 μM), the inhibitory effects of the azetidine compounds were observed relatively early, at 30–60 min, on both Stat3 DNA-binding activity (Fig. 4C) and Tyr phosphorylation (Fig. 4D, pY705Stat3).

The subject of a further assay is MCF-10A cells. Kind of assay: CyQuant viable cell number assay, MCF-10A. Type of assay: cell-based, human. Conditions: 72 h, read-out: IC50 viable cell numbers, MCF-10A. The method, then:
(§1) CyQuant assay was performed to evaluate compounds as previously reported. Details are presented in Supplementary Information, “Methods”. […]
(§2) 1.2.6. Cell viability assays
(§3) CyQuant assay was performed to evaluate compounds as previously reported [1 -3] . Briefly, cells (5 x 10^3 per well, 100 µl) in culture in 96-well plates were treated once with 0 -10 µM concentrations of H120, H105, […]
(§4) concentration of H182 for 6 h and then treated with 0- 100 nM docetaxel or 0-20 µM cisplatin for a total of 72 h. Viable cell numbers were assessed by a CyQuant cell proliferation kit according to the manufacturer’s instructions (Thermo/Life Technologies Corp, Carlsbad, CA). Viable cell numbers were normalized to that of DMSO (control)-treated samples. […]

The target in assay [1] is T1, Stat1:Stat1 DNA-binding activity (Mus musculus, UniProt P42225).
T1 construct: endogenous in cells; host or cells: EGF-stimulated NIH3T3/hEGFR fibroblasts (nuclear extract)
T1 sequence (P42225 2-749 limits assumed): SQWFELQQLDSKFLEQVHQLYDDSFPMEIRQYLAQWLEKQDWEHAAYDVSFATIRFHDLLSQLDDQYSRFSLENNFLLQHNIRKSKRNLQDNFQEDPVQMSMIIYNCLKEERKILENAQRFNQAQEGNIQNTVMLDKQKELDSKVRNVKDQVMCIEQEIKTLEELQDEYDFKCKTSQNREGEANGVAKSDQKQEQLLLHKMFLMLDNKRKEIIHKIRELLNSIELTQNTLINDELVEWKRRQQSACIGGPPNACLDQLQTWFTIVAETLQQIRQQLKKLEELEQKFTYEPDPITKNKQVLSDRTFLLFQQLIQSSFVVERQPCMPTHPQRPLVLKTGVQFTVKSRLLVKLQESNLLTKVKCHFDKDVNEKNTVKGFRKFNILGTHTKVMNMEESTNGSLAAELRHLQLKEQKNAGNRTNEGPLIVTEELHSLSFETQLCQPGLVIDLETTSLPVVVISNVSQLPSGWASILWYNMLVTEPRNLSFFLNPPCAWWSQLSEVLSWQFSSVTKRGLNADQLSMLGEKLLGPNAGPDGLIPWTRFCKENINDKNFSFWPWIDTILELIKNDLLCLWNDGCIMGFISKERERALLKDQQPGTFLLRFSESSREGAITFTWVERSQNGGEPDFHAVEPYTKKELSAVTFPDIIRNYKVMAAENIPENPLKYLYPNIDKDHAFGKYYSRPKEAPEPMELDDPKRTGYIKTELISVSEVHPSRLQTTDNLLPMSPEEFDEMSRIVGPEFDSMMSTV
Kind of assay: EMSA of Stat1:Stat1 DNA-binding activity in nuclear extracts of EGF-stimulated NIH3T3/hEGFR. Type of assay: biochemical. Conditions: Fig. 1C, 30 min. The method, then: These studies were carried out as previously described using the ^32P-labeled oligonucleotide probes, hSIE (high affinity sis-inducible element from the c-fos gene, m67 variant, 5^′-[…]) that binds Stat1 and Stat3 [11, 12] and the mammary gland factor element (MGFe) from the bovine β–casein gene promoter (sense strand, 5^′-[…]) that binds Stat5 and Stat1 [11, 12]. Details are presented in Supplementary Information, “Methods”. […]
min, prior to incubation with the radiolabeled probe for 30 min at 30 °C and subjecting to EMSA analysis.
In another case, the nuclear extract was pre-incubated with the radiolabeled probe for 30 min at 30 °C prior to incubation with increasing concentration of H182 at room temperature for 30 min and subjecting to EMSA analysis. Bands corresponding to Stats DNA- binding activities were scanned and quantified using ImageJ and plotted as a percentage of control (vehicle) against the concentration of the inhibitor, from which the IC50 values were derived .

Another assay deals with MDA-MB-468 cells. Kind of assay: CyQuant viable cell number assay, MDA-MB-468. Type of assay: cell-based, human. Particulars: read-out: IC50 viable cell numbers, MDA-MB-468. The protocol: as §1, §2, §3, §4
Assay [2] has as its system normal human mesothelial cells. Kind of assay: CyQuant viable cell number assay, normal mesothelial cells. Type of assay: cell-based. Conditions: 72 h, read-out: IC50 viable cell numbers, normal human mesothelial cells. The protocol:
as §1, §2, §3, §4

Where [3] appears, read: first Stat1:Stat1 value listed (hSIE probe).
The mark [4] stands for this setting: second Stat1:Stat1 value listed (MGFe probe).

Sequence of Stat3 (P40763 whole entry): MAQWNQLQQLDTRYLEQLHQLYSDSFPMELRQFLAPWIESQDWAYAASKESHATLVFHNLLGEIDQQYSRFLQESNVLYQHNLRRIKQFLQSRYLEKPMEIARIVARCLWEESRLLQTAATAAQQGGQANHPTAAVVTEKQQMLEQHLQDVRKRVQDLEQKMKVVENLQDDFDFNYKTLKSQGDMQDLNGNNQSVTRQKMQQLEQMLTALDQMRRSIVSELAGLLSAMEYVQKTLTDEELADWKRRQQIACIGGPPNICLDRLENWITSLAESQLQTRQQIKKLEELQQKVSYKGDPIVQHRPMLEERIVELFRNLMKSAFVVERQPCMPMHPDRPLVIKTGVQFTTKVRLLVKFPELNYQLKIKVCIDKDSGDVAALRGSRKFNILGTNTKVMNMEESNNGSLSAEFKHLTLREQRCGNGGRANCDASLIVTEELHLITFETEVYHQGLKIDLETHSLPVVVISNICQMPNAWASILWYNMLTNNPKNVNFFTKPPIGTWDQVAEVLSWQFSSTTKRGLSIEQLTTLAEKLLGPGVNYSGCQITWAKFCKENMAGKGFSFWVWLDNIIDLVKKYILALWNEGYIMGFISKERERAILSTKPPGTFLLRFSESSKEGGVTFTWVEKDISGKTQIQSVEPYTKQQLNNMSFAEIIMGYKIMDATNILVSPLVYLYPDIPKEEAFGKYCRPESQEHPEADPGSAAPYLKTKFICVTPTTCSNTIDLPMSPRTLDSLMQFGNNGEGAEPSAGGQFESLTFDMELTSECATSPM

For `O=C([C@H]1CCN1S(=O)(=O)c1c(F)c(F)c(F)c(F)c1F)N(Cc1ccc(C2CCCCC2)cn1)c1ccc2c(=O)[nH]cnc2c1` [Compound H172], the “Effect on constitutive Stat3 DNA-binding activity in cells” value at Stat3 is “dose-dependent inhibition”. For the same compound, the half-maximal inhibitory concentration (IC50) in the assay on MCF-10A cells is 4 µM; with MCF-10A cells (Homo sapiens, MCF-10A), 3.8 to 4 µM; in assay [1] (setting [3]), above 20 µM; in assay [1] (setting [4]), above 20 µM; in the assay on MDA-MB-468 cells (Homo sapiens, MDA-MB-468, 72 h) it was 1.5 µM; in assay [2], 4.9 to 9.2 µM.
As to `O=C([C@H]1CCN1S(=O)(=O)c1c(F)c(F)c(F)c(F)c1F)N(Cc1ccc(C2CCCCC2)cn1)c1ccc2c(=O)[nH]ncc2c1` [Compound H182], the “Effect on constitutive Stat3 DNA-binding activity in cells” value on Stat3 was “dose-dependent inhibition”. The IC50 in the assay on MCF-10A cells is 3.8 µM; with MCF-10A cells (Homo sapiens, MCF-10A) it was 3.8 to 4 µM; in assay [1] (setting [3]), 16.8 µM; in assay [1] (setting [4]), 17.8 µM; with MDA-MB-468 cells (72 h), 1.1 µM; with MDA-MB-468 cells (Homo sapiens, MDA-MB-468, 72 h) it was 1 µM. In addition, the IC50 in assay [2] is 4.9 to 9.2 µM.
